Assay results published in US4137311A, “Synergistic compositions and method of use” (William H. Rorer, Inc., priority 1977, dated 1979).
Structures can show the parent of a compound that is named as a salt.

Tests used:
[1] = system: Croton-Oil Induced Inflammation To The Mouse's Ear; test: Delayed co-application to existing croton-oil induced inflammation of the mouse's ear (Table II), edema weight and percent inhibition; settings: for Ear edema weight (± S.D.): control 14.9±3.8
Procedure: (§1) Hydrocortisone and bis-(2-pyridyl-1-oxide) disulfide magnesium sulfate were suspended or dissolved in ethanol U.S.P. (200 proof) at concentrations of 20, 40 and 80 mg/ml of bis-(2-pyridyl-1-oxide) disulfide magnesium sulfate and 0.01, 1 and 10 mg of hydrocortisone.
Groups of mice treated with only the croton oil irritant solution served as controls. The right ear of mice in any group was not treated.
(§2) Four hours after application of the irritant vehicle (three hours after drug application) both ears were amputated and one circular section was exercised from each ear using a No. 4 cork borer (7 mm i.d.). The ear sections were then weighed. The increase in weight due to edema formation caused by the croton oil in the treated ear and reduction of the edema caused by treatment with bis-(2-pyridyl-1-oxide) disulfide magnesium sulfate hydrocortisone or combinations thereof was determined by subtracting the weight of the untreated right ear section from that of the treated left ear section.

[2] = system: Croton-Oil Induced Inflammation To The Mouse's Ear; test: Immediate co-administration: croton-oil induced inflammation of the mouse's ear (Table I), edema weight and percent inhibition; settings: immediate application; for Ear edema weight (± S.D.): control 16.9±3.0
Procedure: Mathematical determination of the synergistic effects of combinations of bis-(2-pyridyl-1-oxide) disulfide magnesium sulfate and hydrocortisone was done using a modification of the method described by Van Arman, C.
as §1, §2
Ethanol was used as the vehicle; pyridine contained in the usual irritant vehicle as described previously produces an alkaline reaction. Controls were treated with only the croton oil vehicle.
A fixed dose of 4 mg/ear of bis-(2-pyridyl-1-oxide) disulfide magnesium sulfate was co-applied with 0.01, 0.1 and 1 mg/ear of hydrocortisone.

[3] = Solubility in ethanol U.S.P. (200 proof)
[4] = delayed application, hydrocortisone (free alcohol) alone 0.01 mg/ear
[5] = delayed application, hydrocortisone (free alcohol) alone 0.1 mg/ear
[6] = delayed application, hydrocortisone (free alcohol) alone 1.0 mg/ear
[7] = hydrocortisone alone 0.1 mg/ear
[8] = hydrocortisone alone 1.0 mg/ear
[9] = delayed application, adduct alone 4 mg/ear
[10] = delayed application, adduct alone 8 mg/ear
[11] = adduct alone, topical dose 4 mg/ear

SMILES: C[C@]12CCC(=O)C=C1CC[C@@H]1[C@@H]2[C@@H](O)C[C@@]2(C)[C@H]1CC[C@]2(O)C(=O)CO [Hydrocortisone]
- Percent inhibition of ear edema [1, 4]: 17.5%
- Ear edema weight (± S.D.) [1, 4]: 12.3 ± 3.3 mg
- Percent inhibition of ear edema [1, 5]: 40.3%
- Ear edema weight (± S.D.) [1, 5]: 8.9 ± 2.3 mg
- Percent inhibition of ear edema [1, 6]: 58.4%
- Ear edema weight (± S.D.) [1, 6]: 6.2 ± 2.4 mg
- dose of hydrocortisone by itself necessary to achieve a similar response (46.3%) ([1]; delayed application, hydrocortisone alone): 0.25 mg/ear
- expected anti-inflammatory response by extrapolation of dose-response line ([1]; hydrocortisone by itself 0.00125 mg/ear): little, if any, significant anti-inflammatory response
- Percent inhibition of ear edema ([2]; hydrocortisone alone 0.01 mg/ear (Table I)): 23.1%
- Ear edema weight (± S.D.) ([2]; hydrocortisone alone 0.01 mg/ear): 13.0 ± 3.8 mg
- Percent inhibition of ear edema [2, 7]: 53.3%
- Ear edema weight (± S.D.) [2, 7]: 7.9 ± 2.3 mg
- Percent inhibition of ear edema [2, 8]: 67.5%
- Ear edema weight (± S.D.) [2, 8]: 5.5 ± 2.6 mg
- inhibition ([2]; hydrocortisone alone, dose printed in text 0.01 mg/ear): 53.3%

SMILES: [O-][n+]1ccccc1SSc1cccc[n+]1[O-] [bis-(2-pyridyl-1-oxide) disulfide magnesium sulfate]
- expected anti-inflammatory response by extrapolation of dose-response line ([1]; adduct by itself 0.87 mg/ear): little, if any, significant anti-inflammatory response
- Ear edema weight (± S.D.) ([1]; delayed application, 1 hour after croton oil, adduct alone 2 mg/ear): 12.7 ± 2.4 mg
- dose of adduct by itself necessary to achieve a similar response (46.3%) ([1]; delayed application, adduct alone): 17.7 mg/ear
- Percent inhibition of ear edema ([1]; delayed application, adduct alone 2 mg/ear): 14.8%
- Percent inhibition of ear edema [1, 9]: 23.5%
- Ear edema weight (± S.D.) [1, 9]: 11.4 ± 2.8 mg
- Percent inhibition of ear edema [1, 10]: 35.6%
- Ear edema weight (± S.D.) [1, 10]: 9.6 ± 2.2 mg
- Percent inhibition of ear edema [2, 11]: 24.9%
- Ear edema weight (± S.D.) [2, 11]: 12.7 ± 3.0 mg
- solubility in the alcohol vehicle [3]: formed a fine suspension
